Values quoted from earlier work in patent US12371983B2, “Large-scale carbon-mineralization through oxalatization” (THE CURATORS OF THE UNIVERSITY OF MISSOURI, priority 2021, dated 2025).
In brackets after ≈: the same amount, converted by molar mass.

Conditions: at 20° C. and one atmospheric pressure

For `O=C=O` [CO2], the solubility in water is listed as roughly 1800 µg/mL (≈ 40.9 mM).
